US12077503B2, “Substituted cyclic amides and their use as herbicides” (FMC CORPORATION, priority 2015, dated 2024)

Tests used:
Assay in all cases: Test C postemergence
Assay type in all cases: in vivo
Conditions in all cases: scale 0 to 100, 0 no effect, 100 complete control
[1] = test system: morningglory (Ipomoea coccinea)
Procedure, shortened: (§1)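 Visual 0 (no effect) to 100 (complete control) ratings versus controls, taken 13–15 d after treatment in the greenhouse; dash means no result. Compounds in a surfactant-containing non-phytotoxic solvent blend were applied preemergence to seeds in loam-sand soil or postemergence to 1- to 4-leaf plants (2–18 cm) in peat-based medium.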

[2] = test system: nutsedge, yellow (yellow nutsedge, Cyperus esculentus)
Procedure, shortened: as §1

[3] = test system: oilseed rape (Brassica napus)
Procedure, shortened: as §1

## CN1CC(c2ccc(F)c(F)c2)C(C(=O)Nc2ccccc2C(F)(F)F)C1=O (stereo not drawn) [Compound 641]
[1]; 31 g ai/ha
  Plant response rating, Morningglory: 0
[1]; 62 g ai/ha
  Plant response rating, Morningglory: 15
[1]; 125 g ai/ha
  Plant response rating, Morningglory: 35
[1]; 250 g ai/ha
  Plant response rating, Morningglory: 40
[2]; 31 g ai/ha
  Plant response rating, Nutsedge, Yellow: 0
[2]; 62 g ai/ha
  Plant response rating, Nutsedge, Yellow: 0
[2]; 125 g ai/ha
  Plant response rating, Nutsedge, Yellow: 0
[2]; 250 g ai/ha
  Plant response rating, Nutsedge, Yellow: 0
[3]; 31 g ai/ha
  Plant response rating, Oilseed Rape: 20
[3]; 62 g ai/ha
  Plant response rating, Oilseed Rape: 45
[3]; 125 g ai/ha
  Plant response rating, Oilseed Rape: 45
[3]; 250 g ai/ha
  Plant response rating, Oilseed Rape: 55
